In PMC5007552, “The hVps34‐SGK3 pathway alleviates sustained PI3K/Akt inhibition by stimulating mTORC1 and tumour growth” (The EMBO Journal, 2016):
Values joined by “and” are separate entries in the source; they are usually repeats but may differ in a detail not shown here. Identical values can stand only once.

Test system: ZR-75-1 cells
Assay: NanoString human kinome mRNA quantification
Type: cell-based
Description: Human mRNAs were hybridised to NanoString human kinome and control code sets, then subjected to quantification using NanoString software. […] To permit data compaction, and simple kinome‐wide comparisons, the fold changes are log2 transformed. […] Cell pellets were resuspended at a concentration of ~6,500 cells/μl in RLT buffer (Qiagen). […] For total copy numbers, triplicate normalised count values were averaged, and to calculate fold induction, means were divided by triplicate mean values from matched DMSO controls. P‐values were calculated using unpaired t‐test (GraphPad Prism software) by employing treated and control count data for each kinase mRNA.

## NC1(c2ccc(-c3nc4ccn5c(=O)[nH]nc5c4cc3-c3ccccc3)cc2)CCC1 [MK-2206]
1 μM, day 5, ZR-75-1, DMSO control 230th
  rank of SGK3 mRNA expression in the 536-member kinase panel: 94
AAK1 mRNA, average of 3 replicates
  AAK1 Average normalised counts: 782.49
AAK1 mRNA, single replicates
  AAK1 Normalised counts: 765.01 and 806.95 and 775.51
AATK mRNA, average of 3 replicates
  AATK Average normalised counts: 168.267
AATK mRNA, single replicates
  AATK Normalised counts: 168.73 and 152.79 and 183.28
ABL1 mRNA, average of 3 replicates
  ABL1 Average normalised counts: 597.787
ABL1 mRNA, single replicates
  ABL1 Normalised counts: 594.12 and 597.59 and 601.65
ABL2 mRNA, average of 3 replicates
  ABL2 Average normalised counts: 904.847
ABL2 mRNA, single replicates
  ABL2 Normalised counts: 861.36 and 926.84 and 926.34
ACVR1B mRNA, single replicates
  ACVR1B Normalised counts: 285.69
ACVR1C mRNA, average of 3 replicates
  ACVR1C Average normalised counts: 2.92
ACVR1C mRNA, single replicates
  ACVR1C Normalised counts: 2.39 and 2.5 and 3.87
ACVR1 mRNA, single replicates
  ACVR1 Normalised counts: 276.15 and 273.79
ACVR2A mRNA, average of 3 replicates
  ACVR2A Average normalised counts: 137.863
ACVR2A mRNA, single replicates
  ACVR2A Normalised counts: 146 and 131.94 and 135.65
ACVR2B mRNA, average of 3 replicates
  ACVR2B Average normalised counts: 119.837
ACVR2B mRNA, single replicates
  ACVR2B Normalised counts: 122.37 and 110.22 and 126.92
ACVRL1 mRNA, average of 3 replicates
  ACVRL1 Average normalised counts: 5.713
ACVRL1 mRNA, single replicates
  ACVRL1 Normalised counts: 4.2 and 5.1 and 7.84
ADCK1 mRNA, average of 3 replicates
  ADCK1 Average normalised counts: 103.98
ADCK1 mRNA, single replicates
  ADCK1 Normalised counts: 96.01 and 112.83 and 103.1
ADCK2 mRNA, average of 3 replicates
  ADCK2 Average normalised counts: 571.397
ADCK2 mRNA, single replicates
  ADCK2 Normalised counts: 535.04 and 567.18 and 611.97
ADCK3 mRNA, average of 3 replicates
  ADCK3 Average normalised counts: 173.12
ADCK3 mRNA, single replicates
  ADCK3 Normalised counts: 181.45 and 164.95 and 172.96
ADCK4 mRNA, average of 3 replicates
  ADCK4 Average normalised counts: 488.637
ADCK4 mRNA, single replicates
  ADCK4 Normalised counts: 486.86 and 483.78 and 495.27
ADCK5 mRNA, average of 3 replicates
  ADCK5 Average normalised counts: 272.407
ADCK5 mRNA, single replicates
  ADCK5 Normalised counts: 276.89 and 275.28
ADRBK1 mRNA, average of 3 replicates
  ADRBK1 Average normalised counts: 4377.38
ADRBK1 mRNA, single replicates
  ADRBK1 Normalised counts: 4312.7 and 4473.91 and 4345.53
ADRBK2 mRNA, average of 3 replicates
  ADRBK2 Average normalised counts: 361.227
ADRBK2 mRNA, single replicates
  ADRBK2 Normalised counts: 361.43 and 359.55 and 362.7
AKT1 mRNA, average of 3 replicates
  AKT1 Average normalised counts: 6880.64
AKT1 mRNA, single replicates
  AKT1 Normalised counts: 6785.99 and 6852.52 and 7003.4
AKT2 mRNA, average of 3 replicates
  AKT2 Average normalised counts: 2329.47
AKT2 mRNA, single replicates
  AKT2 Normalised counts: 2337.52 and 2309.87 and 2341.02
AKT3 mRNA, average of 3 replicates
  AKT3 Average normalised counts: 1.89
AKT3 mRNA, single replicates
  AKT3 Normalised counts: 2.39 and 1 and 2.28
ALK mRNA, average of 3 replicates
  ALK Average normalised counts: 1
ALK mRNA, single replicates
  ALK Normalised counts: 1
ALPK2 mRNA, average of 3 replicates
  ALPK2 Average normalised counts: 16.6133
ALPK2 mRNA, single replicates
  ALPK2 Normalised counts: 12.38 and 22.48 and 14.98
ALPK3 mRNA, average of 3 replicates
  ALPK3 Average normalised counts: 74.1967
ALPK3 mRNA, single replicates
  ALPK3 Normalised counts: 85.1 and 68.52 and 68.97
AMHR2 mRNA, average of 3 replicates
  AMHR2 Average normalised counts: 1
AMHR2 mRNA, single replicates
  AMHR2 Normalised counts: 1
ANKK1 mRNA, average of 3 replicates
  ANKK1 Average normalised counts: 2.167
ANKK1 mRNA, single replicates
  ANKK1 Normalised counts: 1 and 1.63 and 3.87
ARAF mRNA, average of 3 replicates
  ARAF Average normalised counts: 918.807
ARAF mRNA, single replicates
  ARAF Normalised counts: 894.08 and 950.29 and 912.05
ATM mRNA, average of 3 replicates
  ATM Average normalised counts: 3.063
ATM mRNA, single replicates
  ATM Normalised counts: 5.11 and 1 and 3.08
ATR mRNA, average of 3 replicates
  ATR Average normalised counts: 668.797
ATR mRNA, single replicates
  ATR Normalised counts: 672.29 and 661 and 673.1
AURKA mRNA, average of 3 replicates
  AURKA Average normalised counts: 948.07
AURKA mRNA, single replicates
  AURKA Normalised counts: 903.17 and 1006.76 and 934.28
AURKB mRNA, average of 3 replicates
  AURKB Average normalised counts: 1225.21
AURKB mRNA, single replicates
  AURKB Normalised counts: 1232.22 and 1235.24 and 1208.17
AURKC mRNA, average of 3 replicates
  AURKC Average normalised counts: 8.06
AURKC mRNA, single replicates
  AURKC Normalised counts: 7.84 and 7.71 and 8.63
AXL mRNA, average of 3 replicates
  AXL Average normalised counts: 5.22
AXL mRNA, single replicates
  AXL Normalised counts: 3.29 and 7.71 and 4.66
BCKDK mRNA, average of 3 replicates
  BCKDK Average normalised counts: 3561.04
BCKDK mRNA, single replicates
  BCKDK Normalised counts: 3631.88 and 3513.08 and 3538.17
BCR mRNA, average of 3 replicates
  BCR Average normalised counts: 1460.29
BCR mRNA, single replicates
  BCR Normalised counts: 1503.09 and 1393.35 and 1484.43
BLK mRNA, average of 3 replicates
  BLK Average normalised counts: 26.4533
BLK mRNA, single replicates
  BLK Normalised counts: 26.93 and 30.3 and 22.13
BMP2K mRNA, average of 3 replicates
  BMP2K Average normalised counts: 406.717
BMP2K mRNA, single replicates
  BMP2K Normalised counts: 374.15 and 422.97 and 423.03
BMPR1A mRNA, average of 3 replicates
  BMPR1A Average normalised counts: 4758.43
BMPR1A mRNA, single replicates
  BMPR1A Normalised counts: 4812.63 and 4697.18 and 4765.49
BMPR1B mRNA, average of 3 replicates
  BMPR1B Average normalised counts: 1516.82
BMPR1B mRNA, single replicates
  BMPR1B Normalised counts: 1517.63 and 1515.84 and 1516.98
BMPR2 mRNA, average of 3 replicates
  BMPR2 Average normalised counts: 568.93
BMPR2 mRNA, single replicates
  BMPR2 Normalised counts: 569.58 and 587.16 and 550.05
BMX mRNA, average of 3 replicates
  BMX Average normalised counts: 1
BMX mRNA, single replicates
  BMX Normalised counts: 1
BRAF mRNA, average of 3 replicates
  BRAF Average normalised counts: 627.873
BRAF mRNA, single replicates
  BRAF Normalised counts: 623.21 and 634.94 and 625.47
BRD2 mRNA, average of 3 replicates
  BRD2 Average normalised counts: 2991.5
BRD2 mRNA, single replicates
  BRD2 Normalised counts: 2957.43 and 3009.21 and 3007.86
BRD3 mRNA, average of 3 replicates
  BRD3 Average normalised counts: 697.943
BRD3 mRNA, single replicates
  BRD3 Normalised counts: 683.2 and 692.28 and 718.35
BRD4 mRNA, average of 3 replicates
  BRD4 Average normalised counts: 2588.8
